We go through 18 compounds from patent publication US9133139B2, “Fluoroalkyl-1,4-benzodiazepinone compounds” (BRISTOL-MYERS SQUIBB COMPANY, priority 2012, dated 2015).

The pIC50 is −log10 of the IC50, conventionally taken in molar units.

One series relates to TALL-1. Kind of series: Human Tumor Xenograft Models in Mice, TALL-1. The series is classed as in vivo. To be noted: for Antitumor Activity in TALL-1 (LCK), QD dosing / Antitumor Activity in TALL-1 (LCK), BID dosing: oral; for Antitumor Activity in TALL-1 (LCK), QD dosing: TALL-1 xenograft in NOD-SCID mice; for antitumor activity with oral administration (PO): Human Tumor Xenograft Models in mice; for Antitumor Activity in TALL-1 (LCK), BID dosing: BID × 10, TALL-1 xenograft in NOD-SCID mice. As to the method: Human Tumor Xenograft Models in Mice
Mice were fed food and water ad libitum.
Preclinical Chemotherapy Trials
When death occurred, the day of death was recorded.
In Vivo Antitumor Activity

The nature of series [1]: Human metabolic stability half-life assay (liver microsomes). It counts as in vitro ADME. To be noted: pH 7.4, human liver microsomes, CYP-mediated (NADPH-dependent), 0.5 μM compound, 45-minute time course, read-out: HLM (t1/2, min). The protocol: Metabolic Stability Half-Life Panel
Result Interpretation Guideline
Incubation with Liver Microsomes
Sample Analysis—Instrumentation
(Microsomes from liver hold many membrane-bound enzymes, among them those of drug oxidation.)

The test system of a further series is human Notch 3. Kind of series: Notch-CBF1 Transactivation Assay (luciferase reporter, transfected HeLa cells), Notch 3. The following applies: read-out: Notch 3 (IC50); HeLa cells transfected with truncated Notch 3 and CBF1 luciferase reporter, 18 hours incubation. It counts as cell-based. An excerpt: (§1) Notch-CBF1 Transactivation Assay
(§2) The Notch-CBF1 (C-promoter binding factor I) cell based transactivation assay is based on the ability of the released Notch intracellular domain fragments (NICDs) to function as transcription factors in conjunction with CBF1 and other nuclear factors. Luciferase assays were used to measure the antagonism of Notch-CBF1 transcriptional activity. HeLa cervical cancer cells are transiently co-transfected with pCDNA3.1/Hygro plasmids containing truncated Notch 1, Notch 2, Notch 3, or Notch 4 receptors and a PGL3 luciferase reporter vector containing 4 copies of CBF1 binding site. The cells were then tested for Notch-CBF1 activity in the absence or presence of test compounds. HeLa cells, maintained in DMEM (high glucose with HEPES), 1× glutamine/penicillin/streptomycin and 10% Fetal Bovine serum, were transiently transfected in a T175 Flask (4.5×10^6 cells/flask) using the Monster Transfection Kit (Minis #MIR2906) according to manufacturers specifications. Table 2 denotes respective DNA quantity for the transfections.
(§3) Assay media (5 μL) containing test compounds in final concentrations ranging from 5 μM to 8.4×10^−5 μM (3 fold serial dilutions) were added to the cells and the cell plates were then incubated for 18 hours at 37° C. and 5% CO2. Control wells contained DMSO vehicle (total counts) or 0.5 μM of an in-house small molecule inhibitor (background counts). Duplicates were used for each sample. Luciferase activity was measured after a 20-minute incubation with 50 μl STEADY-GLO® luciferase reagents according to manufacturer's specifications (Promega, Cat. #E2550) and analyzed by Envision plate reader (PerkinElmer, Boston, Mass.).
(§4) The antagonist effect of compounds was expressed as 100×[1−(average sample−average background)/(average total−average background)] where sample is the luciferase activity in the presence of test compound, background is equal to the luciferase activity in the presence of the small molecule inhibitor control and the total is signal induced in DMSO wells.

Another series relates to human Notch 1. Kind of series: Notch-CBF1 Transactivation Assay (luciferase reporter, transfected HeLa cells), Notch 1. It counts as cell-based. The following applies: read-out: Notch 1 (IC50); HeLa cells transfected with truncated Notch 1 and CBF1 luciferase reporter, 18 hours incubation.
Description: as §1, §2, §3, §4
(A reporter such as luciferase makes a cellular process visible.)

Molecules are shown by their SMILES. pIC50: −log10 of the molar value. Bounds are passed on as bounds.

On to `CN1C(=O)[C@@H](NC(=O)[C@H](CCC(F)(F)F)[C@@H](C(N)=O)c2ccccc2)N=C(c2ccccc2)c2ccccc21` [Example 1, (2R,3R)—N-((3S)-1-Methyl-2-oxo-5-phenyl-2,3-dihydro-1H-1,4-benzodiazepin-3-yl)-3-phenyl-2-(3,3,3-trifluoropropyl)succinamide], for which the “Antitumor Activity in TALL-1 (LCK), QD dosing” value in the series with TALL-1 (Dose 24 (unit not given)) is 3.5 LCK. In the series with TALL-1, the “antitumor activity with oral administration (PO)” value (“antitumor activity … (PO)” below) is listed as “showed antitumor activity”.
Regarding `Cc1cccc2c1NC(=O)[C@@H](NC(=O)[C@H](CCC(F)(F)F)[C@@H](C(N)=O)c1ccccc1)N=C2c1cccc(F)c1` [Example 5, (2R,3R)—N1-((S)-5-(3-Fluorophenyl)-9-methyl-2-oxo-2,3-dihydro-1H-benzo[e][1,4]diazepin-3-yl)-3-phenyl-2-(3,3,3-trifluoropropyl)succinamide], the half-life at 0.5 μM in series [1] was no less than 30 min. For the same compound, in the series with human Notch 3, the pIC50 is 7.85.
`NC(=O)[C@@H](c1cccnc1)[C@@H](CCC(F)(F)F)C(=O)N[C@H]1N=C(c2ccccc2)c2ccccc2NC1=O` [Example 10, (2R,3R)—N1-((S)-2-Oxo-5-phenyl-2,3-dihydro-1H-benzo[e][1,4]diazepin-3-yl)-3-(pyridin-3-yl)-2-(3,3,3-trifluoropropyl)succinamide]: the pIC50 in the series on human Notch 1 is 7.71; in the series on human Notch 3 it was 7.64.
Turning to `Cc1nocc1[C@H](C(N)=O)[C@@H](CCC(F)(F)F)C(=O)N[C@H]1N=C(c2ccccc2)c2ccccc2N(c2ccccn2)C1=O` [Example 11, (2R,3R)-3-(3-Methyl-4-isoxazolyl)-N-((3S)-2-oxo-5-phenyl-1-(2-pyridinyl)-2,3-dihydro-1H-1,4-benzodiazepin-3-yl)-2-(3,3,3-trifluoropropyl)succinamide], the pIC50 with human Notch 1 was 7.89. Further, the half-life at 0.5 μM in series [1] is no less than 30 min.
Regarding `NC(=O)[C@@H](c1ccccc1)[C@@H](CCC(F)(F)F)C(=O)N[C@H]1N=C(c2ccccc2)c2ccccc2N(c2ccccn2)C1=O` [Example 12, (2R,3R)—N-((3S)-2-Oxo-5-phenyl-1-(2-pyridinyl)-2,3-dihydro-1H-1,4-benzodiazepin-3-yl)-3-phenyl-2-(3,3,3-trifluoropropyl)succinamide], the negative logarithm of the IC50 (pIC50) in the series on human Notch 1 was 7.87.
With `COc1ccc(N2C(=O)[C@@H](NC(=O)[C@H](CCC(F)(F)F)[C@@H](C(N)=O)c3ccccc3)N=C(c3ccccc3)c3ccccc32)nc1` [Example 15, (2R,3R)—N-((3S)-1-(5-Methoxy-2-pyridinyl)-2-oxo-5-phenyl-2,3-dihydro-1H-1,4-benzodiazepin-3-yl)-3-phenyl-2-(3,3,3-trifluoropropyl)succinamide], the negative logarithm of the IC50 (pIC50) with human Notch 1 is 7.75.
As to `COc1cccc(N2C(=O)[C@@H](NC(=O)[C@H](CCC(F)(F)F)[C@@H](C(N)=O)c3ccccc3)N=C(c3ccccc3)c3ccccc32)n1` [Example 16, (2R,3R)—N-((3S)-1-(6-Methoxy-2-pyridinyl)-2-oxo-5-phenyl-2,3-dihydro-1H-1,4-benzodiazepin-3-yl)-3-phenyl-2-(3,3,3-trifluoropropyl)succinamide], the pIC50 in the series with human Notch 1 was 7.79.
Take `COc1cccc2c1NC(=O)[C@@H](NC(=O)[C@H](CCC(F)(F)F)[C@@H](C(N)=O)c1ccccc1)N=C2c1ccccc1` [Example 21, (2R,3R)—N1-((S)-9-Methoxy-2-oxo-5-phenyl-2,3-dihydro-1H-benzo[e][1,4]diazepin-3-yl)-3-phenyl-2-(3,3,3-trifluoropropyl)succinamide]: the half-life at 0.5 μM in series [1] was no less than 30 min. Besides, the “Antitumor Activity in TALL-1 (LCK), QD dosing” value with TALL-1 (Dose 40 (unit not given)) is recorded as 2.7 LCK. Also, the “antitumor activity … (PO)” value with TALL-1 was “showed antitumor activity”.
Regarding `NC(=O)[C@@H](c1ccccc1)[C@@H](CCC(F)(F)F)C(=O)N[C@H]1N=C(c2ccccc2)c2ccccc2N(c2ccc(Cl)cn2)C1=O` [Example 22, (2R,3R)—N-((3S)-1-(5-Chloro-2-pyridinyl)-2-oxo-5-phenyl-2,3-dihydro-1H-1,4-benzodiazepin-3-yl)-3-phenyl-2-(3,3,3-trifluoropropyl)succinamide], the pIC50 with human Notch 1 is 7.80; in the series with human Notch 3, 7.94.
For `COc1cc(C#N)cc2c1NC(=O)[C@@H](NC(=O)[C@H](CCC(F)(F)F)[C@@H](C(N)=O)c1ccccc1)N=C2c1ccccc1` [Example 25, (2R,3R)—N1-((S)-7-Cyano-9-methoxy-2-oxo-5-phenyl-2,3-dihydro-1H-benzo[e][1,4]diazepin-3-yl)-3-phenyl-2-(3,3,3-trifluoropropyl)succinamide], in that order: 7.62 and 7.72.
Take `NC(=O)[C@@H](c1ccccc1)[C@@H](CCC(F)(F)F)C(=O)N[C@H]1N=C(c2ccccc2)c2cccc(OC3CC3)c2NC1=O` [Example 26, (2R,3R)—N1-((S)-9-Cyclopropoxy-2-oxo-5-phenyl-2,3-dihydro-1H-benzo[e][1,4]diazepin-3-yl)-3-phenyl-2-(3,3,3-trifluoropropyl)succinamide]: the half-life at 0.5 μM in series [1] was no less than 30 min. The “Antitumor Activity in TALL-1 (LCK), BID dosing” value in the series with TALL-1 (Dose 10 (unit not given)) is 1.4 LCK. Besides, the “antitumor activity … (PO)” value in the series on TALL-1 was “showed antitumor activity”.
Take `Cc1cccc2c1NC(=O)[C@@H](NC(=O)[C@H](CCC(F)(F)F)[C@@H](C(N)=O)c1ccccc1)N=C2c1ccc(F)cc1` [Example 27, (2R,3R)—N1-((S)-5-(4-Fluorophenyl)-9-methyl-2-oxo-2,3-dihydro-1H-benzo[e][1,4]diazepin-3-yl)-3-phenyl-2-(3,3,3-trifluoropropyl)succinamide]: the pIC50 with human Notch 1 was 7.82. In addition, the half-life at 0.5 μM in series [1] was no less than 30 min.
For `Cc1cccc2c1NC(=O)[C@@H](NC(=O)[C@H](CCC(F)(F)F)[C@@H](C(N)=O)c1ccccc1)N=C2c1ccccc1` [Example 30, (2R,3R)—N1-((S)-9-Methyl-2-oxo-5-phenyl-2,3-dihydro-1H-benzo[e][1,4]diazepin-3-yl)-3-phenyl-2-(3,3,3-trifluoropropyl)succinamide], the half-life at 0.5 μM in series [1] was no less than 30 min. For the same compound, the “Antitumor Activity in TALL-1 (LCK), BID dosing” value in the series on TALL-1 (Dose 20 (unit not given)) is reported as 1.2 LCK. For the same compound, the “antitumor activity … (PO)” value with TALL-1 is reported as “showed antitumor activity”.
On to `Cc1cccc2c1NC(=O)[C@@H](NC(=O)[C@H](CCC(F)(F)F)[C@@H](C(N)=O)c1ccccc1)N=C2c1cccc(Cl)c1` [Example 31, (2R,3R)—N1-((S)-5-(3-Chlorophenyl)-9-methyl-2-oxo-2,3-dihydro-1H-benzo[e][1,4]diazepin-3-yl)-3-phenyl-2-(3,3,3-trifluoropropyl)succinamide], for which the half-life at 0.5 μM in series [1] was no less than 30 min. Moreover, in the series with TALL-1, the “antitumor activity … (PO)” value is “showed antitumor activity”.
On to `Cc1cccc2c1NC(=O)[C@@H](NC(=O)[C@H](CCC(F)(F)F)[C@@H](C(N)=O)c1conc1C)N=C2c1cccc(Cl)c1` [Example 32, (2R,3R)—N1-((S)-5-(3-Chlorophenyl)-9-methyl-2-oxo-2,3-dihydro-1H-benzo[e][1,4]diazepin-3-yl)-3-(3-methylisoxazol-4-yl)-2-(3,3,3-trifluoropropyl)succinamide], for which, in series [1], the half-life at 0.5 μM was no less than 30 min.
Turning to `Cc1cccc2c1NC(=O)[C@@H](NC(=O)[C@H](CCC(F)(F)F)[C@@H](C(N)=O)c1ccccc1)N=C2c1cccc(C(F)F)c1` [Example 34, (2R,3R)—N1-((S)-5-(3-(Difluoromethyl)phenyl)-9-methyl-2-oxo-2,3-dihydro-1H-benzo[e][1,4]diazepin-3-yl)-3-phenyl-2-(3,3,3-trifluoropropyl)succinamide], the half-life at 0.5 μM in series [1] was no less than 30 min.
`NC(=O)[C@@H](c1ccccc1)[C@@H](CCC(F)(F)F)C(=O)N[C@H]1N=C(c2cccc(F)c2)c2cccc(OC3CC3)c2NC1=O` [Example 35, (2R,3R)—N1-((S)-9-Cyclopropoxy-5-(3-fluorophenyl)-2-oxo-2,3-dihydro-1H-benzo[e][1,4]diazepin-3-yl)-3-phenyl-2-(3,3,3-trifluoropropyl)succinamide]: the half-life at 0.5 μM in series [1] is no less than 30 min.
For the compound `COc1cccc2c1NC(=O)[C@@H](NC(=O)[C@H](CCC(F)(F)F)[C@@H](C(N)=O)c1ccc(Cl)cc1)N=C2c1ccccc1` [Example 36, (2R,3R)-3-(4-Chlorophenyl)-N1-((S)-9-methoxy-2-oxo-5-phenyl-2,3-dihydro-1H-benzo[e][1,4]diazepin-3-yl)-2-(3,3,3-trifluoropropyl)succinamide], the half-life at 0.5 μM in series [1] was no less than 30 min.
